Values quoted from earlier work as cited in patent US6887842B1, “Modulating a pharmacokinetic property of a drug by administering a bifunctional molecule containing the drug” (The Board of Trustees of the Leland Stanford Junior …, priority 1999, dated 2005).
Like-named read-outs stand apart in the source and are kept apart here. Blank lines part the entries; values can stand above or below the molecule they belong to.

Key:
albumin = albumin (Homo sapiens, UniProt P02768)
[1] = in vivo
[2] = in vivo; remark: listed apart in the source
[3] = in vivo; remark: listed apart in the source

Chain of albumin (P02768 25-609, species assumed): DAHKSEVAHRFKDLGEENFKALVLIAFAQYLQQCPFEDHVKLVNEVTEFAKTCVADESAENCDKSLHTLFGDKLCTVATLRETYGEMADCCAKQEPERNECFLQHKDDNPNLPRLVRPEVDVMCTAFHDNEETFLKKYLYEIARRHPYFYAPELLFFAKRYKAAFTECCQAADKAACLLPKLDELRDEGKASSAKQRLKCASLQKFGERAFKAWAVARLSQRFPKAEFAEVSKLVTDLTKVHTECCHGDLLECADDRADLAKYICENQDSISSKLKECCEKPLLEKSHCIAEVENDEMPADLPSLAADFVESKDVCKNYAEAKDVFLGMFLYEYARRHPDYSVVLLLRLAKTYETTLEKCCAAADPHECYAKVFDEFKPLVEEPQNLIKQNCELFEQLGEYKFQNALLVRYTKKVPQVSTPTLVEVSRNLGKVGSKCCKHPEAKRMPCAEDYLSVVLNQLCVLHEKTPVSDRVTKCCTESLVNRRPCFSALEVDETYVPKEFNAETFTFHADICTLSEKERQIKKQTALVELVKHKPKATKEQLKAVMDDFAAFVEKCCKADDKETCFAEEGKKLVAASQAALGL

degree of binding to albumin (albumin; plasma): extensively bound to albumin
Molecule: CN(C)CCCN1c2ccccc2Sc2ccc(Cl)cc21 [chlorpromazine]

degree of binding to albumin (albumin): extensively bound to albumin
Molecule: Cc1noc(NS(=O)(=O)c2ccc(N)cc2)c1C [Sulfisoxazole]
distribution (extracellular space) [2]: found almost exclusively in the extracellular space

half-life [3]: 60 h
Molecule: CO[C@H]1C[C@@H]2CC[C@@H](C)[C@@](O)(O2)C(=O)C(=O)N2CCCC[C@H]2C(=O)O[C@H]([C@H](C)C[C@@H]2CC[C@@H](O)[C@H](OC)C2)CC(=O)[C@H](C)/C=C(\C)[C@@H](O)[C@@H](OC)C(=O)[C@H](C)C[C@H](C)/C=C/C=C/C=C/1C [rapamycin]

hepatic first-pass clearance [1]: extensive hepatic first-pass clearance
Molecule: Sc1ncnc2nc[nH]c12 [mercaptopurine]

The next lines start with the molecule.

Molecule: COc1ccc([C@@H]2Sc3ccccc3N(CCN(C)C)C(=O)[C@@H]2OC(C)=O)cc1 [diltiazem]
hepatic first-pass clearance [1]: extensive hepatic first-pass clearance

Molecule: CC[C@H](C)C(=O)O[C@H]1C[C@@H](C)C=C2C=C[C@H](C)[C@H](CC[C@@H]3C[C@@H](O)CC(=O)O3)[C@H]21 [lovastatin]
hepatic first-pass clearance [1]: extensive hepatic first-pass clearance

Molecule: C=CCN1CC[C@]23c4c5ccc(O)c4O[C@H]2C(=O)CC[C@@]3(O)[C@H]1C5 [naloxone]
hepatic first-pass clearance [1]: extensive hepatic first-pass clearance

Molecule: COc1ccc2cc([C@H](C)C(=O)O)ccc2c1 [naproxen]
degree of binding to albumin (albumin; plasma): extensive binding to albumin

Molecule: CC[C@H](C)C(=O)O[C@H]1C[C@H](O)C=C2C=C[C@H](C)[C@H](CC[C@@H](O)C[C@@H](O)CC(=O)O)[C@H]21 [pravastatin]
hepatic first-pass clearance [1]: extensive hepatic first-pass clearance

Molecule: FK506
half-life [3]: 30 h

Molecule: Cc1ccc2nc(N)[nH]c(=O)c2c1Sc1ccncc1 [AG 337]
half-life [3]: 2 to 3 h
